# Experimental data published in patent publication US12163156B2, “Cell induction method” (INSTITUTE OF ZOOLOGY, CHINESE ACADEMY OF SCIENCES, priority 2018, dated 2024).
# Experiments:
# [1] = system: adult hepatocytes; test: Small molecule amplification of adult hepatocytes; type: cell-based, human; settings: for number of cells after 6 days of culturing: control group 1.59×10^4
# Procedure: (1) The method for coating the plate is as described above.
# (2) Resuscitation and culture of adult hepatocytes. Adult hepatocytes (M00995-P […] human, Bioreclamation IVT) are taken out from a liquid nitrogen tank, then quickly placing in a 37° C. water bath, after thawing the cells are added to 5 mL of 37° C. pre-heated hepatocyte inoculation medium (InVitroGRO CP Medium), after counting the cells are inoculated in a 24-well plate at the density of 9×10^4/well, 2-4 h after hepatocyte adherence, aspirating and abandoning the hepatocyte inoculation medium, and respectively adding hepatocyte culture control medium, 10 μm small molecule medium, and 20 μm small molecule medium. The media are changed every 2 days. The number of cells is estimated from the photograph on day 2. After 4 days, the cells of the 20 μm small molecule medium group are changed to culture in 10 μm small molecule medium. The cells are counted after co-culturing for 6 days. A portion of the cells are taken for RNA extraction to detect the expression of human hepatocyte-specific genes.
# (3) Passage of adult hepatocytes. 4.7×10^4 of the hepatocytes cultured in the above-mentioned control group, and 8×10^4 of the hepatocytes cultured 10 μm small-molecule medium are respectively re-inoculated into the 24-well plates coated with rat tail tendon collagen, and the media are changed every two days. After 6 days, photos are taken to record cell growth.
# [2] = system: human embryonic hepatocytes; test: In vitro amplification of human embryonic hepatocytes; type: cell-based; settings: for cells amplified (multiple): 12 days subculturing (3 generations in total)
# Procedure: (1) Coating the plate. The cell culture plate is coated with rat tail tendon collagen (Thermo scientific, A1048301, 3 mg/mL) at a concentration of […]. Taking a 24-well plate as an example, the bottom area of each hole is 1.9 cm^2, and […] is needed per well (about 3.2 μl); 3.2 μl of rat tail tendon collagen is dissolved in 500 μl of 20 mM glacial acetic acid, adding to the well to incubate in cell culture incubator at 37° C. for 1 h, and after aspirating and abandoning the solution, washing with PBS for 3 times.
# (2) Resuscitation of human embryonic hepatocytes. Human embryonic hepatocytes are taken out from liquid nitrogen tanks (freezing date: Jan. 15, 2014; freezing medium: cell banker 2; the number of frozen cells: 2×10^7/tube), quickly placing in a 37° C. water bath, immediately after thawing the cells are sucked into a 15 mL centrifuge tube containing 5 mL of hepatocyte medium (control group), then centrifuging at 50 g, 4° C. for 5 min. The supernatant is discarded, then the cells are resuspended in 500 μl of hepatocyte medium with the number of 1.16×10^6 cells, and the cell resuscitation rate is 5.8%.
# (3) Seeding the human embryonic hepatocytes. […] After hepatocyte medium containing 10 μM small molecule (−)-Blebbistatin, and hepatocyte medium containing 20 μM small molecule (−)-Blebbistatin hepatocyte medium are respectively seeded 24 h, for each group the digested cells from 3 wells are counted to calculate the cell attachment rate. After seeding for 72 h, for each group 3 wells of cells are digested and counted. […] A portion of the cells per well (⅖ of the cells counted) are taken for RNA extraction to detect the expression of human hepatocyte-associated genes.
# (4) The first passage of human embryonic hepatocytes. […] A portion of the cells per well (⅖ of the cells counted) are taken for RNA extraction to detect the expression of human hepatocyte-associated genes.
# (5) The second passage of human embryonic hepatocytes. […] The medium is changed every 2 days, and after continuing to culture for 144 h (6 days), the cells are digested and counted. […]
# [3] = system: mouse adult primary hepatocytes; test: In vitro amplification of mouse adult primary hepatocytes (Alb-GFP)
# Description: Alb-Cre mice are introduced from BRL Medicine, Cre recombinase is only expressed in mature hepatocytes expressing albumin; Rosa26/mTmG mice are introduced from Charles River, and a red and green fluorescence reporter system is incorporated into the Rosa26 locus of this kind of mouse; normally a tomato red fluorescent protein is expressed in the cells, while in the case of Cre recombination it is changed to express a green fluorescent protein (GFP). Alb-Cre adult mice are hybridizedwith Rosa26/mTmG mice to obtain offspring Alb-Cre×Rosa26/mTmG mice, and mature hepatocytes of the offspring are labeled green, and other tissue cells present the red fluorescent.
# Alb-Cre×Rosa26/mTmG adult mice are sacrificed by cervical dislocation, taking out the hepatic lobes, cutting into small pieces, blowing and washing repeatedly with 100 volumes of pre-cooled PBS to remove the blood cells until the washing solution is not red; adding 3-5 volumes of collagenase IV (ThermoFisher, 17104019, preheated at 37° C.) to digest in incubator at 37° C. for 30-40 min, and blowing 2-3 times during the digestion, then centrifuging and removing the supernatant. […] The mouse hepatocyte medium comprises: DMEM/F12 (gibco, 10565018), adding N2 additive (100×, Gibco, 17502048), B27 additive (50×, Gibco, 17504044), 5% bovine serum albumin (1000×, Sigma, A8022), β-mercaptoethanol (1000×, Gibco, 21985023), GlutaMAX (200×, Gibco, 35050-061), non-essential amino acids (100×, Gibco, 11140-050), 1 μg/mL insulin (Roche, 11376497001), hepatocyte growth factor (10 ng/mL, R&D, 294-HG-025), transforming growth factor β inhibitor A83-01 (5 μm, stemgent, 04-0014), glycogen synthase kinase 3β inhibitor Chir99021 (6 μM, stemgent, 04-0004-10), macrophage stimulating protein 1 and 2 inhibitor XMU-MP-1 (2-5 μM, MCE, HY-100526) fibroblast growth factor 4 (10 ng/mL, R&D, 5846-f4-025), double antibiotics.
# Without addition of Myosin II inhibitor (−)-Blebbistatin or (S)-(−)-Blebbistatin O-Benzoate, an equal volume of DMSO is added as a control, and the cells are respectively subcultured 3 times (P3), 5 times (P5), and seven times (P7).
# [4] = system: ICR female mice; test: In vivo experiment: ventral fat content after injection into the ventral side of mice; design: species or system mouse; settings: 0.5 mg/kg injected into the ventral side once a day; for ventral fat content: 19 days, drug stopped for 32 days, vs DMSO group
# Procedure: In vivo experiment: the same batch of 6-8 week-old ICR female mice are selected and randomly divided into two groups, 5 in each group. As to one group, small molecule (−)-Blebbistatin or (S)-(−)-Blebbistatin O-Benzoate (0.5 mg/kg, dissolved in 10% DMSO+2% Tween 80+normal saline) is injected into the ventral side of the mice; as to the other group, the same amount of DMSO as the small molecule group is injected in the same way as the experimental group. The injection is performed once a day, 19 days after the injection, and the drug is stopped for 32 days. The mice are sacrificed by cervical dislocation, and the ventral fat content is observed.
# [5] = system: Mouse embryonic fibroblasts; test: Transdifferentiation of mouse embryonic fibroblasts into adipocytes, oil red O staining; type: cell-based; settings: 10 μM added to the original adipocyte induction medium (Myosin inhibitor + BMP4); P<0.001
# Procedure: Taking a 12-well plate as an example (coming, 3335), for each well, preparing 20 μg/ml Matrigel solution (BD, 354277) with 1×DMEM and coating for 12 hours; then the coating solution is removed, washing with 1×PBS. Mouse embryonic fibroblasts (C57, prepared by E13.5) or adult foreskin fibroblasts (HFF20y, Beijing Stem Cell Bank) are uniformly seeded in each well, 1×10^4 cells per well; incubating in basic medium (high glucose DMEM (Gibco, C12430500BT), double antibiotics) added with 10% fetal bovine serum (Gibco, 16000-044) for 24 hours. The medium is removed, then washing with PBS. […] The identification of adipocytes is performed by oil red staining of cells, oil red O staining solution (cell-specific, Solarbio, […]) is used, and the details are as follows: removing the medium, adding ORO Fixative to fix for 10-15 min, removing the ORO Fixative, and placing in flowing air for 10-15 min. At this time, ORO Stain is prepared in a ratio of ORO Stain A:ORO Stain B=3:2, standing for 10 min after mixing, then adding to the well; the staining solution is removed after dip dyeing for 15 min, adding 60% isopropanol to rinse for 20-30 s, and washing with distilled water for 3 times, then taking photos under an optical microscope. The neutral fats are orange-red or orange-colored, and the phospholipids are pink.
# [6] = system: CYP1A2 gene; test: CYP1A2 gene induction with omeprazole in small molecule-amplified adult hepatocytes; type: cell-based, human; settings: 50 μm omeprazole in 10 μm small molecule medium, 48 hours, vs DMSO
# Procedure: (4) 10CYP1A2 adult hepatocytes amplified in 10 μm small medium. 3×10^5 hepatocytes are induced and inoculated in a 24-well plate coated with rat tail tendon collagen, after culturing in a 10 μm small molecule medium for 24 h, then replacing the medium with a 10 μm small molecule medium with 50 μm omeprazole, the control group is a 10 μm small molecule medium containing DMSO, and 48 hours later the cells are collected to detect the expression of the CYP1A2 gene.
structure (smiles),measurement,setting,value
"Cc1ccc2c(c1)C(=O)C1(O)CCN(c3ccccc3)C1=N2 (single isomer, unassigned; (-)) [(−)-Blebbistatin]",number of cells after 6 days of culturing,[1]; 10 μm group,6.47×10^4 (SD=1.24)
same,subculture of human hepatocytes,"[1]; 10 μm small molecule medium, control medium cannot",can make human hepatocytes subculture
same,number of cells after 6 days of culturing,[1]; # group: 20 μm for 4 days then 10 μm for 2 days,9.47×10^4 (SD=0.98)
same,"expression of human hepatocyte specific genes albumin, AFP, CYP1A2, CYP3A4",[1]; adult hepatocytes amplified with small molecules,still express
same,expression of the proliferating cell nuclear antigen (PCNA) gene,[1]; small molecule group vs control group,significantly higher
same,amplification effect on adult hepatocytes (cell number day 6 / day 2),[1]; small molecule groups vs control,significant amplification effect
same,human hepatocyte-specific genes albumin and alpha-fetoprotein expression,"[2]; 10 μM and 20 μM small molecule media, 12 days subculturing, real-time quantitative PCR",still expressed
same,cells amplified (multiple),[2]; 10 μM small molecule medium,about 22.1 times
same,cells amplified (multiple),[2]; 20 μM small molecule medium,about 13.0 times
same,hepatocyte clusters with Alb expression,"[3]; 5 μM in mouse hepatocyte medium, fibronectin-coated dish, one week",green hepatocyte clusters with Alb expression are observed
same,subculturing in vitro,[3]; mouse hepatocytes in medium with Myosin inhibitor,at least 20 generations
same,long-term amplification of AlB-GFP-positive hepatocytes,"[3]; vs DMSO control, subcultured P3, P5, P7",significantly promotes
same,ventral fat content,[4],significantly increase
same,ventral fat content,[4]; listed as Ble,significant increase
Cc1ccc2c(c1)C(=O)[C@]1(OC(=O)c3ccccc3)CCN(c3ccccc3)C1=N2 [(S)-(−)-Blebbistatin O-Benzoate],passaged in vitro,[3]; treated mouse hepatocytes,more than 20 times
same,ventral fat content increase,[4]; without optimization,about 50%
Cc1cccc(-c2nn(C(=S)Nc3ccccc3)cc2-c2ccnc3ccccc23)n1 [A83-01],adipocyte induction efficiency,[5],up to 20%
NC(=O)c1ccc(-c2nc(-c3ccc4c(c3)OCO4)c(-c3ccccn3)[nH]2)cc1 [SB431542],adipocyte induction efficiency,[5],18%
COc1ccc2[nH]c([S+]([O-])Cc3ncc(C)c(OC)c3C)nc2c1 (stereo not shown) [omeprazole],expression of CYP1A2 gene,[6],can be increased
